Tests used:
[1] = target: T1, [3H]-NMS-occupied muscarinic hM1 subtype (Homo sapiens, UniProt P11229); assay: biochemical
T1 sequence (P11229 1-460): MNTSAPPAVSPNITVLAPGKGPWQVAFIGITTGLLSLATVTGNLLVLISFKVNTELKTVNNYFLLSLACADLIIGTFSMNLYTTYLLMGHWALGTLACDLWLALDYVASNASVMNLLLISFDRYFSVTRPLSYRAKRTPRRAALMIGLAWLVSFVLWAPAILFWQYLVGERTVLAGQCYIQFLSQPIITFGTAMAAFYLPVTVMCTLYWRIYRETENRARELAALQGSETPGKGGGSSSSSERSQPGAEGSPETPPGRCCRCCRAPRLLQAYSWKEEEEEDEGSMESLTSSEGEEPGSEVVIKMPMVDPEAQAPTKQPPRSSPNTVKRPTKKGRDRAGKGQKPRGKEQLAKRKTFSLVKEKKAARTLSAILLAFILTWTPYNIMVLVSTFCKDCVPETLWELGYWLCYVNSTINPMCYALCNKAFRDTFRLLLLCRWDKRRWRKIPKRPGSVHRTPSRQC
Method: (§1) All tested compounds were purchased from Merck KGaA (Darmstadt, Germany). The radioligand binding experiments were performed with membranes from Chinese Hamster Ovary (CHO) cells stably transfected with the five cloned human muscarinic receptor subtypes (hM1-5). Membrane fractions were prepared according to the protocol, which have been previously described; membranes were stored at −80 °C until use. Nonspecific binding was defined by the radioactivity bound in the presence of 10 µM atropine.
(§2) Off-rate assays were performed as described elsewhere to estimate the affinity of the ligands for the [^3H]-NMS-occupied receptor (log Kocc). Briefly, a high concentration of membranes (about 0.1 mg/mL) was incubated with a high concentration of [^3H]-NMS (2 nM) for 60 min at room temperature (mix membrane). Next, 100 µL aliquots were distributed into polypropylene tubes that were empty or in a final volume of 1 mL binding buffer with 1 µM atropine alone and in the presence of a range of concentrations of tested compound (1 nM–0.1 mM).
(§3) The effect on the radioligand dissociation of each tested ligand was determined at 0 min and at one time point, which was chosen to be ca 2.5 dissociation half-lives of [^3H]-NMS alone from each subtype receptors. Later (80 min for hM1, 20 min for hM2 and 70 min for hM5), the samples were filtered and counted as previously reported. Non specific binding was measured as previously reported.
(§4) All the results are expressed as means ± SEM obtained from 3-4 independent experiments each one performed in duplicate.

[2] = target: T2, hM3 muscarinic receptor (Homo sapiens, UniProt P20309); assay: Equilibrium inhibition binding with [3H]-NMS, CHO cell membranes; details: [3H]-NMS 0.2 nM, mean ± SEM of 3-4 experiments, read-out: pKi hM3 (converted)
T2 construct: expressed in transfected cells; host or cells: CHO cells, stably transfected; membrane fractions
Method: as §1
(§5) Aliquots of membranes (25–70 µg/mL) were added and incubated for 2 h at room temperature, filtered through UniFilter GF/B plates (PerkinElmer Life and Analytical Science, Monza, Italy) using a FilterMate cell harvester (PerkinElmer Life and Analytical Science, Monza, Italy). The filters were washed several times with ice-cold MilliQ water. Then, the plates were counted in a β-counter (TopCount NXT microplate scintillation counter, PerkinElmer Life and Analytical Science, Monza, Italy).
(§6) Data points from radioligand inhibition binding curve were fitted to models using nonlinear regression equation to determine inhibitor potency (IC50) estimates, which were then converted to Ki values as appropriate.
as §4

[3] = target: T3, hM5 muscarinic receptor (Homo sapiens, UniProt P08912); assay: as above; details: [3H]-NMS 0.2 nM, CHO membranes, mean ± SEM of 3-4 experiments; read-out: pKi hM5 (converted)
T3 construct: expressed in transfected cells; host or cells: CHO cells, stably transfected; membrane fractions
T3 sequence (P08912 1-532): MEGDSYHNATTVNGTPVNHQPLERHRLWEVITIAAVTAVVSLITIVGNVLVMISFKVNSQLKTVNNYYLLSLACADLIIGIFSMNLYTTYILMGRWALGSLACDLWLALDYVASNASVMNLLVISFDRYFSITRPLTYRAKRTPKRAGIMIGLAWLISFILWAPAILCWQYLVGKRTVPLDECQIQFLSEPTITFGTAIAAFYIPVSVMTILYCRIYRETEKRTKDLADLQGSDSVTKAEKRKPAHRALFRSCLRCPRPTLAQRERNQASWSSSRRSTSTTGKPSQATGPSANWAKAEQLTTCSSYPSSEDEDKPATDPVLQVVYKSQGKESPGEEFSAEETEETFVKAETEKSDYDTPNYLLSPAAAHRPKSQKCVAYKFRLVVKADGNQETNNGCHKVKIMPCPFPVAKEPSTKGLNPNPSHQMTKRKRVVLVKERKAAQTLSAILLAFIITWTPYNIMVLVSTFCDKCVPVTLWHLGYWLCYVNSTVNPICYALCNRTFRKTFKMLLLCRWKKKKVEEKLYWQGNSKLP
Method: as §1, §5, §6, §4

[4] = target: T4, hM1 muscarinic receptor (Homo sapiens, UniProt P11229); assay: as above; details: [3H]-NMS 0.2 nM, mean ± SEM of 3-4 experiments, read-out: pKi hM1 (converted)
T4 construct: expressed in transfected cells; host or cells: CHO cells, stably transfected; membrane fractions
T4 sequence (P11229 1-460): T1 sequence (P11229 1-460)
Method: as §1, §5, §6, §4

[5] = target: T5, hM2 muscarinic receptor (Homo sapiens, UniProt P08172); assay: as above; details: [3H]-NMS 0.2 nM, mean ± SEM of 3-4 experiments, read-out: pKi hM2 (converted)
T5 construct: expressed in transfected cells; host or cells: CHO cells, stably transfected; membrane fractions
T5 sequence (P08172 1-466): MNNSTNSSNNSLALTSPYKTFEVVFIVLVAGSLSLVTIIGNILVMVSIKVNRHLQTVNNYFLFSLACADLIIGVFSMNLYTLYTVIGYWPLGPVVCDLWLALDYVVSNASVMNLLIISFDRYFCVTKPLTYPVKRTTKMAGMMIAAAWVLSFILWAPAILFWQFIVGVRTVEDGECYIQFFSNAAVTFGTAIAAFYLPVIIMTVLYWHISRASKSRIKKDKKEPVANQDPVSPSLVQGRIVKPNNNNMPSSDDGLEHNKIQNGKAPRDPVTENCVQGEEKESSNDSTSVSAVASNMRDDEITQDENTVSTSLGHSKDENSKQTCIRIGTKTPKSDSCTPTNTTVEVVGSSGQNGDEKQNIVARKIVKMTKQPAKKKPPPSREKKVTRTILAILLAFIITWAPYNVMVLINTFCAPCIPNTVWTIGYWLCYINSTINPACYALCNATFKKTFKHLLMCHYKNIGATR
Method: as §1, §5, §6, §4

[6] = target: T6, hM4 muscarinic receptor (Homo sapiens, UniProt P08173); assay: as above; details: [3H]-NMS 0.2 nM, CHO membranes, mean ± SEM of 3-4 experiments; read-out: pKi hM4 (converted)
T6 construct: expressed in transfected cells; host or cells: CHO cells, stably transfected; membrane fractions
T6 sequence (P08173 1-479): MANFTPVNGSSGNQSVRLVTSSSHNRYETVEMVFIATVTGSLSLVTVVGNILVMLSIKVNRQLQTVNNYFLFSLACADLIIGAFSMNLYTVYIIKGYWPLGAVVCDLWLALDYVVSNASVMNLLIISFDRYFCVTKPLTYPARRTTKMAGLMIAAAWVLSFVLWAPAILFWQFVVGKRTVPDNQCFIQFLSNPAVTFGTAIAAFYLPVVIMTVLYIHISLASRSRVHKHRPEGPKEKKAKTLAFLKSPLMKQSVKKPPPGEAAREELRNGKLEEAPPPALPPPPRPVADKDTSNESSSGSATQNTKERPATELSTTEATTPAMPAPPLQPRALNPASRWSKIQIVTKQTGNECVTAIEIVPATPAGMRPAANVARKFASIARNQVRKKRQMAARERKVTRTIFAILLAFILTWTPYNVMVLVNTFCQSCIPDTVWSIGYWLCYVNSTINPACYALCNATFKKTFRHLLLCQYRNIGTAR
Method: as §1, §5, §6, §4

[7] = target: T7, [3H]-NMS-occupied muscarinic hM2 subtype (Homo sapiens, UniProt P08172); assay: One point kinetic (off-rate) assay of [3H]-NMS dissociation; format: binding
T7 construct: expressed in transfected cells; host or cells: CHO cells, stably transfected; membrane fractions
T7 sequence (P08172 1-466): T5 sequence (P08172 1-466)
Method: as §1, §2, §3, §4

[8] = target: T8, [3H]-NMS-occupied muscarinic hM5 subtype (Homo sapiens, UniProt P08912); assay: as above; format: binding; details: read-out: log Kocc hM5 (converted)
T8 construct: expressed in transfected cells; host or cells: CHO cells, stably transfected; membrane fractions
T8 sequence (P08912 1-532): T3 sequence (P08912 1-532)
Method: as §1, §2, §3
Data from one-point kinetic experiments were analyzed in order to obtain estimates of the affinity of an allosteric ligand for the [^3H]-NMS occupied receptor (log Kocc) in a single step, using an equation introduced in GraphPad Prism 5.02 [33, 34].
as §4

[9] = target: five human muscarinic receptors subtypes (hM1–hM5); assay: Equilibrium binding, summary statements over the five subtypes
Method: as §1, §5, §6, §4

T2 sequence (P20309 whole entry): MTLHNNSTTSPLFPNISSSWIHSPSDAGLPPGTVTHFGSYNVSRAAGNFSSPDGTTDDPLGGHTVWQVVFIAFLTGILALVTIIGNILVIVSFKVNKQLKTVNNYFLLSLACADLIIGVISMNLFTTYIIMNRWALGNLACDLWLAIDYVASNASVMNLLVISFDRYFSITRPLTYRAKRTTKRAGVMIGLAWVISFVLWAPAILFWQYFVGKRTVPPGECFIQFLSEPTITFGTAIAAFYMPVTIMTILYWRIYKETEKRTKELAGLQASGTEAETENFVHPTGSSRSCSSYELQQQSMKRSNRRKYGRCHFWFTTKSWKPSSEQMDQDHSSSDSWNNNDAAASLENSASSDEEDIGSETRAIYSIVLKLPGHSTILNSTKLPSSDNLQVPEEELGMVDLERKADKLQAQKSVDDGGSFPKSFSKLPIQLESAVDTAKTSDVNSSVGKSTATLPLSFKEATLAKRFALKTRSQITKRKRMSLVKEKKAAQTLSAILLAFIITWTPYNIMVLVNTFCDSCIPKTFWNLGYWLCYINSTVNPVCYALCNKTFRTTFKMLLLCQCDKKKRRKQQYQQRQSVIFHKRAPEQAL

Row | SMILES | Kd [1] [nM] | Ki [2] [nM] | Ki [3] [nM] | Ki [4] [nM] | Ki [5] [nM] | Ki [6] [nM] | selectivity ratio hM2/hM1 ([7]; from log Kocc values) | selectivity ratio hM2/hM5 ([7]; from log Kocc values) | Kd ([7]; read-out: Log Kocc hM2 (converted)) [nM] | Kd [8] [nM] | pKi values (muscarinic subtypes overall) [9]
1 | C[N+](C)(CCCCCC[N+](C)(C)CCCN1C(=O)c2ccccc2C1=O)CCCN1C(=O)c2ccccc2C1=O [W84] | 1620 | 5500 | 9120 | 891 | 6170 | 5010 | 4.6 | 52.5 | 288 | 18200 | –
2 | N=C(N)c1ccc(OCCCCCOc2ccc(C(=N)N)cc2)cc1 [pentamidine] | – | – | 1740 | – | – | 1320 | – | – | – | 182000 | –
3 | [H]/N=C(\N/C(=N/[H])NCCCCCCNC(=N)NC(=N)Nc1ccc(Cl)cc1)Nc1ccc(Cl)cc1 [chlorhexidine] | 81300 | 2140 | 2240 | 501 | – | 1620 | – | – | – | 186000 | around 6

Source: PMC7503225, “Repositioning Dequalinium as Potent Muscarinic Allosteric Ligand by Combining Virtual Screening Campaigns and Experimental Binding Assays” (International Journal of Molecular Sciences, 2020)
